Data reported in PubChem BioAssay (NCI).
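Briefly, cells in 96-well plates were exposed to five compound concentrations for 48 h, and endpoints were estimated by linear interpolation. GI50 marks 50% less growth. TGI is the concentration that stops growth completely.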

Key:
Assay in all cases: growth of human tumour cells (NCI), 48 h
MCF7 breast = tested on: MCF7 breast
BT-549 breast = tested on: BT-549 breast
HCT-116 colon = tested on: HCT-116 colon
SNB-19 CNS = tested on: SNB-19 CNS
HOP-92 NSCLC = tested on: HOP-92 NSCLC
OVCAR-3 ovarian = tested on: OVCAR-3 ovarian
MALME-3M melanoma = tested on: MALME-3M melanoma
K-562 leukemia = tested on: K-562 leukemia
LOX IMVI melanoma = tested on: LOX IMVI melanoma
DU-145 prostate = tested on: DU-145 prostate
NCI-H460 lung = tested on: NCI-H460 lung
U251 CNS = tested on: U251 CNS
SF-268 CNS = tested on: SF-268 CNS
CCRF-CEM leukemia = tested on: CCRF-CEM leukemia
UO-31 renal = tested on: UO-31 renal
UACC-62 melanoma = tested on: UACC-62 melanoma
HCT-15 colon = tested on: HCT-15 colon
NCI-H23 lung = tested on: NCI-H23 lung
MDA-MB-231 breast = tested on: MDA-MB-231 breast
SNB-75 CNS = tested on: SNB-75 CNS
OVCAR-4 ovarian = tested on: OVCAR-4 ovarian
SF-539 CNS = tested on: SF-539 CNS
SK-MEL-28 melanoma = tested on: SK-MEL-28 melanoma
RXF 393 renal = tested on: RXF 393 renal
786-0 renal = tested on: 786-0 renal
HCC-2998 colon = tested on: HCC-2998 colon
TK-10 renal = tested on: TK-10 renal
M14 melanoma = tested on: M14 melanoma
OVCAR-8 ovarian = tested on: OVCAR-8 ovarian
KM12 colon = tested on: KM12 colon
HT29 colon = tested on: HT29 colon
MOLT-4 leukemia = tested on: MOLT-4 leukemia
COLO 205 colon = tested on: COLO 205 colon
NCI-H226 lung = tested on: NCI-H226 lung
RPMI-8226 leukemia = tested on: RPMI-8226 leukemia
SK-OV-3 ovarian = tested on: SK-OV-3 ovarian
ACHN renal = tested on: ACHN renal
HS 578T breast = tested on: HS 578T breast
OVCAR-5 ovarian = tested on: OVCAR-5 ovarian
NCI/ADR-RES ovarian = tested on: NCI/ADR-RES ovarian
SN12C renal = tested on: SN12C renal
A498 renal = tested on: A498 renal
SF-295 CNS = tested on: SF-295 CNS
HOP-62 NSCLC = tested on: HOP-62 NSCLC
UACC-257 melanoma = tested on: UACC-257 melanoma
T-47D breast = tested on: T-47D breast
SW-620 colon = tested on: SW-620 colon
SK-MEL-5 melanoma = tested on: SK-MEL-5 melanoma
MDA-MB-435 = tested on: MDA-MB-435
SR leukemia = tested on: SR leukemia
IGROV1 ovarian = tested on: IGROV1 ovarian
SK-MEL-2 melanoma = tested on: SK-MEL-2 melanoma
CAKI-1 renal = tested on: CAKI-1 renal
HL-60(TB) leukemia = tested on: HL-60(TB) leukemia
PC-3 prostate = tested on: PC-3 prostate
NCI-H522 lung = tested on: NCI-H522 lung
A549 NSCLC = tested on: A549 NSCLC

SMILES: C/C(=C1\SC(=NCc2cccs2)NC1=O)c1ccc2ncccc2c1
- GI50 (MCF7 breast): 11.7 µM
- TGI (MCF7 breast): > 25 µM
- GI50 (BT-549 breast): > 25 µM
- TGI (BT-549 breast): > 25 µM
- GI50 (HCT-116 colon): 11 µM
- TGI (HCT-116 colon): > 25 µM
- GI50 (SNB-19 CNS): 13.6 µM
- TGI (SNB-19 CNS): > 25 µM
- GI50 (HOP-92 NSCLC): 7.08 µM
- TGI (HOP-92 NSCLC): > 25 µM
- GI50 (OVCAR-3 ovarian): 18.1 µM
- TGI (OVCAR-3 ovarian): > 25 µM
- GI50 (MALME-3M melanoma): > 25 µM
- TGI (MALME-3M melanoma): > 25 µM
- GI50 (K-562 leukemia): 8.71 µM
- TGI (K-562 leukemia): > 25 µM
- GI50 (LOX IMVI melanoma): 13.8 µM
- TGI (LOX IMVI melanoma): > 25 µM
- GI50 (DU-145 prostate): > 25 µM
- TGI (DU-145 prostate): > 25 µM
- GI50 (NCI-H460 lung): 9.27 µM
- TGI (NCI-H460 lung): > 25 µM
- GI50 (U251 CNS): 11.7 µM
- TGI (U251 CNS): > 25 µM
- GI50 (SF-268 CNS): 18 µM
- TGI (SF-268 CNS): > 25 µM
- GI50 (CCRF-CEM leukemia): 10.2 µM
- TGI (CCRF-CEM leukemia): > 25 µM
- GI50 (UO-31 renal): 10.1 µM
- TGI (UO-31 renal): > 25 µM
- GI50 (UACC-62 melanoma): > 19.3 µM
- TGI (UACC-62 melanoma): > 25 µM
- GI50 (HCT-15 colon): 10.9 µM
- TGI (HCT-15 colon): > 25 µM
- GI50 (NCI-H23 lung): 22.2 µM
- TGI (NCI-H23 lung): > 25 µM
- GI50 (MDA-MB-231 breast): 7.24 µM
- TGI (MDA-MB-231 breast): > 25 µM
- GI50 (SNB-75 CNS): 3.93 µM
- TGI (SNB-75 CNS): > 23.3 µM
- GI50 (OVCAR-4 ovarian): 18.1 µM
- TGI (OVCAR-4 ovarian): > 25 µM
- GI50 (SF-539 CNS): 9.5 µM
- TGI (SF-539 CNS): > 25 µM
- GI50 (SK-MEL-28 melanoma): > 25 µM
- TGI (SK-MEL-28 melanoma): > 25 µM
- GI50 (RXF 393 renal): > 25 µM
- TGI (RXF 393 renal): > 25 µM
- GI50 (786-0 renal): > 23.1 µM
- TGI (786-0 renal): > 25 µM
- GI50 (HCC-2998 colon): > 25 µM
- TGI (HCC-2998 colon): > 25 µM
- GI50 (TK-10 renal): > 25 µM
- TGI (TK-10 renal): > 25 µM
- GI50 (M14 melanoma): 13.9 µM
- TGI (M14 melanoma): > 25 µM
- GI50 (OVCAR-8 ovarian): 14.7 µM
- TGI (OVCAR-8 ovarian): > 25 µM
- GI50 (KM12 colon): 13.1 µM
- TGI (KM12 colon): > 25 µM
- GI50 (HT29 colon): 10.9 µM
- TGI (HT29 colon): > 25 µM
- GI50 (MOLT-4 leukemia): 9.56 µM
- TGI (MOLT-4 leukemia): > 25 µM
- GI50 (COLO 205 colon): 12.4 µM
- TGI (COLO 205 colon): > 25 µM
- GI50 (NCI-H226 lung): 21.5 µM
- TGI (NCI-H226 lung): > 25 µM
- GI50 (RPMI-8226 leukemia): 13 µM
- TGI (RPMI-8226 leukemia): > 25 µM
- GI50 (SK-OV-3 ovarian): > 25 µM
- TGI (SK-OV-3 ovarian): > 25 µM
- GI50 (ACHN renal): 18.7 µM
- TGI (ACHN renal): > 25 µM
- GI50 (HS 578T breast): 9.15 µM
- TGI (HS 578T breast): > 25 µM
- GI50 (OVCAR-5 ovarian): > 25 µM
- TGI (OVCAR-5 ovarian): > 25 µM
- GI50 (NCI/ADR-RES ovarian): 20.1 µM
- TGI (NCI/ADR-RES ovarian): > 25 µM
- GI50 (SN12C renal): 12.6 µM
- TGI (SN12C renal): > 25 µM
- GI50 (A498 renal): 13.5 µM
- TGI (A498 renal): > 25 µM
- GI50 (SF-295 CNS): 11.4 µM
- TGI (SF-295 CNS): > 25 µM
- GI50 (HOP-62 NSCLC): 21.8 µM
- TGI (HOP-62 NSCLC): > 25 µM
- GI50 (UACC-257 melanoma): > 25 µM
- TGI (UACC-257 melanoma): > 25 µM
- GI50 (T-47D breast): 15.1 µM
- TGI (T-47D breast): > 25 µM
- GI50 (SW-620 colon): 10.1 µM
- TGI (SW-620 colon): > 25 µM
- GI50 (SK-MEL-5 melanoma): 8.21 µM
- TGI (SK-MEL-5 melanoma): > 25 µM
- GI50 (MDA-MB-435): 7.55 µM
- TGI (MDA-MB-435): > 25 µM
- GI50 (SR leukemia): 7.06 µM
- TGI (SR leukemia): > 21.7 µM
- GI50 (IGROV1 ovarian): > 25 µM
- TGI (IGROV1 ovarian): > 25 µM
- GI50 (SK-MEL-2 melanoma): > 25 µM
- TGI (SK-MEL-2 melanoma): > 25 µM
- GI50 (CAKI-1 renal): 11.1 µM
- TGI (CAKI-1 renal): > 25 µM
- GI50 (HL-60(TB) leukemia): 9.36 µM
- TGI (HL-60(TB) leukemia): > 25 µM
- GI50 (PC-3 prostate): 12.7 µM
- TGI (PC-3 prostate): > 25 µM
- GI50 (NCI-H522 lung): 8.56 µM
- TGI (NCI-H522 lung): > 25 µM
- GI50 (A549 NSCLC): 12.2 µM
- TGI (A549 NSCLC): > 25 µM
